{"source": "paper PMC5970182", "about": "“Enabling STD-NMR fragment screening using stabilized native GPCR: A case study of adenosine receptor” (Scientific Reports, 2018)", "molecules": {"B1": {"name": "Wild type, full length human adenosine A2A receptor (receptor, UniProt P29274 1-412, looked up)", "chain": "MPIMGSSVYITVELAIAVLAILGNVLVCWAVWLNSNLQNVTNYFVVSLAAADIAVGVLAIPFAITISTGFCAACHGCLFIACFVLVLTQSSIFSLLAIAIDRYIAIRIPLRYNGLVTGTRAKGIIAICWVLSFAIGLTPMLGWNNCGQPKEGKNHSQGCGEGQVACLFEDVVPMNYMVYFNFFACVLVPLLLMLGVYLRIFLAARRQLKQMESQPLPGERARSTLQKEVHAAKSLAIIVGLFALCWLPLHIINCFTFFCPDCSHAPLWLMYLAIVLSHTNSVVNPFIYAYRIREFRQTFRKIIRSHVLRQQEPFKAAGTSARVLAAHGSDGEQVSLRLNGHPPGVWANGSAPHPERRPNGYALGLVSGGSAQESQGNTGLPDVELLSHELKGVCPEPPGLDDPLAQDGAGVS", "modifications": "N-glycans attached (sites not given)", "notes": "adenosine A2A receptor, human, full length, wild type; Peak 2 of the gel filtration also holds a faster band consistent with a degradation product; also called native A2AR"}}, "key": {"[1]": {"tested_on": "Non-transfected HEK293 cells", "assay": "cAMP assay in non-transfected HEK293 cells (negative control)", "format": "cell-based, human", "conditions": "high concentrations of CGS-21680; probably endogenous A2AR"}, "[2]": {"tested_on": "A2AR StaR", "set-up": "method as in PMID 18664584, PMID 20624408", "conditions": "cited from earlier work"}, "[3]": {"molecular_target": "T1, A2AR (Homo sapiens, UniProt P29274)", "T1 construct": "Full length and wild type A2AR was expressed in yeast (Pichia pastoris) and Sf9; Strep-tag II (N); 8xHis (N); made in house; host or cells: Sf9 insect cells (baculovirus)", "assay": "STD-NMR binding and competition on purified native A2AR"}, "[4]": {"molecular_target": "the molecule itself", "assay": "SEC-MALS; peak 1 of the gel filtration of affinity-purified A2AR; Phenomenex Yarra SEC 3000-3 column, 20 °C, 0.3 ml/min; DDM/CHS micelles; dn/dc protein 0.185 ml/g, detergent 0.1618 ml/g"}}, "data": [{"molecule": "CCNC(=O)[C@H]1O[C@@H](n2cnc3c(N)nc(NCCc4ccc(CCC(=O)O)cc4)nc32)[C@H](O)[C@@H]1O", "note": "[CGS-21680]", "values": [{"measurement": "cAMP production", "setting": "[1]", "value": "small increase in cAMP production"}, {"measurement": "Binding of agonists to StaR preparation in comparison to the wild type protein", "setting": "[2]", "value": "not able to bind correctly"}]}, {"molecule": "CCNC(=O)[C@H]1O[C@@H](n2cnc3c(N)ncnc32)[C@H](O)[C@@H]1O", "note": "[NECA]", "values": [{"measurement": "Binding of agonists to StaR preparation in comparison to the wild type protein", "setting": "[2]", "value": "not able to bind correctly"}]}, {"molecule": "Cn1c(=O)c2c(ncn2C)n(C)c1=O", "note": "[caffeine, reference compound]", "values": [{"measurement": "STD binding signal", "setting": "[3]", "value": "bound to A2AR"}, {"measurement": "STD binding signal in competition with ZM241385", "setting": "[3]", "value": "binding signal of caffeine disappears"}]}, {"molecule": "B1", "values": [{"measurement": "stoichiometry N", "setting": "[4]", "value": "~5"}]}]}
